Like-named read-outs stand apart in the source and are kept apart here.
What was measured:
[1] = tested on: human immunodeficiency virus (HIV); conditions: cited from earlier work; for side effects: patients, clinical use
HIV-1 (HTLV-IIIB strain) = test: Inhibitory activity for HIV-induced cytopathogenicity (MT-4 cells, MTT method); format: cell-based; conditions: read-out: 50% inhibitory concentration of HIV infection
Procedure: (§1) In RPMI 1640 culture medium supplemented with 10% heat-inactivated fetal bovine serum, 2 mM of L-glutamine, 100 U/mL of penicillin G and 100 μg/mL of streptomycin, MT-4 cells (HTLV-1 transformed T4-cell line) at a concentration of 1×10^4 /well in a flat-bottom, microtiter plate were infected with 500 TCID50 of HIV-1 (HTLV-IIIB strain). Immediately after virus infection, sample serially diluted with culture medium from stock solution prepared in dimethyl sulfoxide was added to each well in quadriplicate. After 6 days incubation at 37° C., the viability of mock and HIV-infected cells was determined by the 3-(4,5-dimethylthiazol-2-yl)-2,5-diphenyltetrazolium bromide (MTT) method. And also, the cytotoxicity of sample to MT-4 cells not infected with HIV was assessed in parallel with its antiviral activity under the same way as above.

[2] = Cytotoxicity to MT-4 cells not infected with HIV (MTT method); format: cell-based; conditions: human
Procedure: as §1

[3] = Human immunodeficiency virus 1, IIIB, MT4, 144 h
[4] = MT-4 cells not infected with HIV, 6 days, 37° C., MTT, read-out: 50% cytotoxic concentration to MT-4 cells

IC50 (HIV-1 (HTLV-IIIB strain); Human immunodeficiency virus 1, MT4, 144 h, MT-4 cells infected with 500 TCID50 HIV-1 (HTLV-IIIB strain), 6 days, 37° C., MTT)	SMILES	side effects [1]	CC50 at 144 h ([2]; mt-4 cells)	clinical and immunological status of patients ([1]; patients with AIDS and AIDS-related complex)	IC50 (HIV-1 (HTLV-IIIB strain); [3])	CC50 at 144 h [2, 4]
	O=c1[nH]cnc2c1ncn2[C@H]1CC[C@@H](CO)O1 [DDI, 2',3'-dideoxyinosine]	side effects such as peripheral neuropathy and pancreatitis				
600 nM	Nc1ccn([C@H]2CC[C@@H](CO)O2)c(=O)n1 [DDC, 2',3'-dideoxycytidine, reference compound]	side effects such as peripheral neuropathy and pancreatitis	17.6 µM			
	Cc1cn([C@H]2C[C@H](N=[N+]=[N-])[C@@H](CO)O2)c(=O)[nH]c1=O [AZT, 3'-Deoxy-3'-azidothymidine, reference compound]	serious side effects such as anemia and leukopenia		proven to improve the clinical and immunological status of patients with AIDS and AIDS-related complex	4.6 nM	22.7 µM
	CCOCn1c([Se]c2cccc(C)c2)c(C(C)C)c(=O)[nH]c1=S [Compound 23, 1-(ethoxymethyl)-5-isopropyl-6-[(3-methylphenyl)selenenyl]-2-thiouracil]				3.6 nM	30.6 µM
	Cc1cccc([Se]c2c(C(C)C)c(=O)[nH]c(=O)n2COCc2ccccc2)c1 [Compound 53, 1-[(benzyloxy)methyl]-5-isopropyl-6-[(3-methylphenyl)selenenyl]uracil]				0.07 nM	30.8 µM
	CCc1c([Se]c2cc(C)cc(C)c2)n(CCCc2ccccc2)c(=O)[nH]c1=O [Compound 74, 6-[(3,5-dimethylphenyl)selenenyl]-5-ethyl-1-(3-phenylpropyl)-uracil]				8 nM	27.7 µM
	CCOCn1c([Se]c2cc(C)cc(C)c2)c(C(C)C)c(=O)[nH]c1=O [Compound 50, 6-[(3,5-dimethylphenyl)selenenyl]-1-(ethoxymethyl)-5-isopropyluracil]				0.07 nM	29.2 µM
	CCCCn1c([Se]c2ccccc2)c(C(C)C)c(=O)[nH]c1=O [Compound 81, 1-butyl-5-isopropyl-6-(phenylselenenyl)uracil]				2 nM	27.1 µM
	Cc1cc(C)cc([Se]c2c(C(C)C)c(=O)[nH]c(=O)n2CCCc2ccccc2)c1 [Compound 86, 6-[(3,5-dimethylphenyl)selenenyl]-5-isopropyl-1-(3-phenylpropyl)-uracil]				0.6 nM	26.9 µM
	CCOCn1c([Se]c2cccc(C)c2)c(CC)c(=O)[nH]c1=O [Compound 29, 1-(ethoxymethyl)-5-ethyl-6-[(3-methylphenyl)selenenyl]uracil]				4 nM	32.1 µM
	CCOCn1c([Se]c2cc(F)cc(F)c2)c(CC)c(=O)[nH]c1=S [Compound 18, 6-[(3,5-difluorophenyl)selenenyl]-1-(ethoxymethyl)-5-ethyl-2-thiouracil]				14 nM	7.8 µM
	CCOCn1c([Se]c2cc(F)cc(F)c2)c(C(C)C)c(=O)[nH]c1=S [Compound 25, 6-[(3,5-difluorophenyl)selenenyl]-1-(ethoxymethyl)-5-isopropyl-2-thiouracil]				27 nM	19.7 µM
	Cc1cc(C)cc([Se]c2c(C(C)C)c(=O)[nH]c(=O)n2COCc2ccccc2)c1 [Compound 54, 1-[(benzyloxy)methyl]-6-[(3,5-dimethylphenyl)selenenyl]-5-isopropyluracil]				0.021 nM	30.2 µM
	CCOCn1c([Se]c2cc(C)cc(C)c2)c(CC)c(=O)[nH]c1=S [Compound 17, 6-[(3,5-dimethylphenyl)selenenyl]-1-(ethoxymethyl)-5-ethyl-2-thiouracil]				8 nM	28.8 µM
	CCOCn1c([Se]c2cc(F)cc(F)c2)c(C(C)C)c(=O)[nH]c1=O [Compound 51, 6-[(3,5-difluorophenyl)selenenyl]-1-(ethoxymethyl)-5-isopropyluracil]				1.2 nM	27.5 µM

Source: patent US5889013A, “Pyrimidine acyclonucleoside derivatives” (priority 1994, dated 1999)
